# Test results reported in patent publication US20140073643A1, “TREATMENT OF JAK2-MEDIATED CONDITIONS” (YM BIOSCIENCES AUSTRALIA PTY LTD, priority 2010, published 2014).
# Marks after values point to notes of the source that are not given here.
# Experiments:
# [1] = tested on: patients with high- or intermediate-risk primary myelofibrosis (PMF) and post-PV or post-essential thrombocythemia (ET) myelofibrosis; test: Phase I/II clinical trial of CYT387: spleen response; type: in vivo, human
# Source text: By “spleen response” is meant a reduction in the size of the patient's spleen as assessed by either palpation of a previously palpable spleen during physical exam or by diagnostic imaging. The IWG consensus criteria specifies that there be either a minimum 50% reduction in palpable splenomegaly (spleen enlargement) of a spleen that is at least 10 cm at baseline (prior to treatment) or of a spleen that is palpable at more than 5 cm at baseline becomes not palpable. However, smaller reductions are also considered to be within the term “spleen response”.
# (§1) A clinical trial was designed to assess the safety, tolerability, and pharmacokinetic behavior of CYT387 in a Phase I dose-escalation study in patients with high- or intermediate-risk primary myelofibrosis (PMF) and post-PV or post-essential thrombocythemia (ET) myelofibrosis. The secondary objective was evaluation of CYT387 's benefit to myelofibrosis patients. CYT387 was administered orally (in a capsule without excipients) once daily in 28-day cycles. For patients achieving less than a complete remission after 3 cycles of treatment, escalation was permitted to the highest tolerated dose in the absence of disease progression or unacceptable toxicity. Once dose-limiting toxicity (DLT) was identified, a dose-confirmation cohort initiated treatment at the maximum tolerated dose (MTD) and/or a lower clinically effective dose.
# (§2) Results were obtained for 36 subjects enrolled in the 120 patient Phase I/II trial for which recruitment is ongoing. Of these, 18 patients were from the dose escalation phase, and 18 patients were from the subsequent dose confirmation phase. Twenty subjects (56%) were red cell transfusion-dependent at study entry. Prior treatment included other JAK inhibitors in ten patients (nine and one subjects with INCB018424 and TG101348, respectively) and pomalidomide in nine patients. The median treatment duration at publication was 15 weeks (range 4-38).
# Spleen Size Reduction: Twenty nine (97%) of the 30 evaluable subjects who had splenomegaly at baseline (median 20 cm; range 10-32 cm) had some degree of spleen size reduction (median 9 cm; range 2-18 cm). Eleven (37%) patients have achieved a minimum 50% decrease in palpable spleen size, thus qualifying them for a CI per IWG-MRT criteria, including three out of eight subjects (38%) who were previously treated with INCB018424.
# [2] = tested on: patients with high- or intermediate-risk primary myelofibrosis (PMF) and post-PV or post-essential thrombocythemia (ET) myelofibrosis; test: Phase I/II clinical trial of CYT387: toxicity; type: in vivo
# Protocol: as §1, §2
# To date, 36 subjects were evaluable for toxicity. At the highest dose level (400 mg/day), two of six subjects experienced dose limiting toxicity (DLT) (one each with asymptomatic grade three hyperlipasemia and grade three headache that were reversible upon holding drug); consequently, the maximum tolerated dose (MTD) was declared at 300 mg/day. In the dose-confirmation phase, subjects were started at one of two dose levels that were deemed clinically effective: 150 mg/day (n=15) and 300 mg/day (n=3). Thirty-five subjects were on active therapy at publication of the abstract: 100 mg/day (n=2), 150 mg/day (n=20), 300 mg/day (n=10), and 400 mg/day (n=3).
# [3] = tested on: patients with high- or intermediate-risk primary myelofibrosis (PMF) and post-PV or post-essential thrombocythemia (ET) myelofibrosis; test: Phase I/II clinical trial of CYT387: constitutional symptoms; type: in vivo, human; settings: at last follow up
# Protocol: as §1, §2
# Constitutional symptoms: The proportion of patients with the following symptoms at baseline was as follows: fatigue (97%), pruritus (22%), night sweats (38%), cough (13%), bone pain (28%), and fever (16%). At last follow up, improvement (complete resolution; CR) in these symptoms was reported by 68% (16% CR), 86% (57% CR), 83% (75% CR), 75% (50% CR), 78% (44% CR), and 100% (100% CR), respectively.
# [4] = tested on: patients with high- or intermediate-risk primary myelofibrosis (PMF) and post-PV or post-essential thrombocythemia (ET) myelofibrosis; test: Phase I/II clinical trial of CYT387: anemia response / hemoglobin; type: in vivo, human
# Source text: By “anemia response” is meant an increase in the patient's hemoglobin level or a patient who was transfusion dependent becoming transfusion independent. Desirably, a minimum increase in hemoglobin of 2.0 g/dL lasting a minimum of 8 weeks is achieved, which is the level of improvement specified in the International Working Group (IWG) consensus criteria. However, smaller, but still medically significant, increases in hemoglobin are also considered to be within the term “anemia response”.
# as §1, with “CYT387 was administered orally (in a capsule without excipients) once daily in 28-day cycles.” left out
# as §2
# Anemia Response: The total anemia response rate was 63%. Of 22 subjects who were evaluable for anemia response (baseline Hgb<10 g/dL or red cell transfusion-dependent), nine subjects (41%) had achieved “Clinical Improvement (CI)” as per the International Working Group for Myeloproliferative Neoplasms Research and Treatment (IWG-MRT) criteria, including two of four subjects who were previously treated with INCB018424. An additional five subjects experienced a >50% reduction in transfusion requirement.
# There is also a line for “anemia evaluable” patients which are patients who are considered anemic at baseline by IWG criteria. That is they have a baseline hgb of <10 g/dL or are transfusion dependent at baseline.
# [5] = administered once a day; cited from earlier work
# [6] = 30 evaluable subjects with splenomegaly at baseline
# [7] = Previous Treatment with IMids (Pomalidomide, Thalidomide, Revlimid)
# [8] = Previous Treatment with INCB018424
# [9] = Previous Treatment with TG-101348
# [10] = Previous Treatment with Unspecified JAK2
# [11] = Previous Treatment with any JAK2
# [12] = interim response by diagnosis: PET
# [13] = interim response by diagnosis: PMF
# [14] = interim response by diagnosis: PPV
compound,measurement,setting,value
"N#CCNC(=O)c1ccc(-c2ccnc(Nc3ccc(N4CCOCC4)cc3)n2)cc1 [CYT387, N-(cyanomethyl)-4-[2-[[4-(4-morpholinyl)phenyl]amino]-4-pyrimidinyl]-benzamide]",subjects with some degree of spleen size reduction,[1]; 29 of 30 evaluable subjects with splenomegaly at baseline (median 20 cm),97%
same,"spleen size reduction, median",[1]; [6],9 cm
same,"spleen size reduction, range",[1]; [6],2-18 cm
same,"Responders, Spleen",[1]; [7],Spleen: 6/11 = 54.5%
same,"Responders, Spleen",[1]; [8],Spleen: 3/10 = 30%
same,"Responders, Spleen",[1]; [9],Spleen: 1/4 = 25%
same,"Responders, Spleen",[1]; [10],Spleen: 1/3 = 33.3%
same,"Responders, Spleen",[1]; [11],Spleen: 5/17 = 29.4%
same,patients with minimum 50% decrease in palpable spleen size (CI per IWG-MRT),[1]; eleven of 30 evaluable,37%
same,Spleen Response/Evaluable,[1]; [12],7/19 (36.8%)
same,Spleen Response/Evaluable,[1]; [13],22/82 (26.8%)
same,Spleen Response/Evaluable,[1]; [14],11/33 (33.3%)
same,"patients with minimum 50% decrease in palpable spleen size (CI per IWG-MRT), previously treated with INCB018424",[1]; three out of eight subjects previously treated with INCB018424,38%
same,Grade 3/4 thrombocytopenia,"[2]; human, in vivo",22%
same,Treatment-emergent grade 3/4 neutropenia,"[2]; human, in vivo",not observed
same,grade 4 non-hematological toxicities,"[2]; human, in vivo",No grade 4 non-hematological toxicities were observed
same,subjects experiencing dose limiting toxicity (DLT),"[2]; human, in vivo",two of six
same,subjects with first-dose effect (grade 1 lightheadedness and hypotension),"[2]; human, in vivo",36%
same,time to resolution of first-dose effect,"[2]; human, in vivo",3 to 4 h
same,tolerability,"[2]; human, in vivo",well tolerated
same,treatment-emergent grade 3 anemia,"[2]; human, in vivo",3%
same,maximum tolerated dose (MTD),[2]; oral once daily,300 mg/day
same,complete resolution (CR) of bone pain,[3],44%
same,complete resolution (CR) of cough,[3],50%
same,complete resolution (CR) of fatigue,[3],16%
same,complete resolution (CR) of fever,[3],100%
same,complete resolution (CR) of night sweats,[3],75%
same,complete resolution (CR) of pruritus,[3],57%
same,improvement in bone pain,[3],78%
same,improvement in cough,[3],75%
same,improvement in fever,[3],100%
same,improvement in night sweats,[3],83%
same,improvement in pruritus,[3],86%
same,improvement in fatigue,[3]; patients with symptom at baseline,68%
same,effect on hemoglobin in transfusion dependent patients who respond (Tx responders),"[4]; FIG. 2, no longer receiving RBC transfusions",modest initial increase in hemoglobin that is sustained
same,Anemia response: % responders,[4]; Initial Dose 150 BID,33%*
same,Anemia response: Responders (number),"[4]; Initial Dose 150 BID, 21 evaluable pts",7
same,Anemia response: % responders,[4]; Initial Dose 150 QD,50%
same,Anemia response: Responders (number),"[4]; Initial Dose 150 QD, 32 evaluable pts",16
same,Anemia response: % responders,[4]; Initial Dose 300 QD,54%
same,Anemia response: Responders (number),"[4]; Initial Dose 300 QD, 39 evaluable pts",21
same,"Responders, Anemia",[4]; [7],Anemia: 9/14 = 64.3%
same,"Responders, Anemia",[4]; [8],Anemia: 4/7 = 57.1%
same,"Responders, Anemia",[4]; [9],Anemia: 3/4 = 75%
same,"Responders, Anemia",[4]; [10],Anemia: 2/3 = 66.7%
same,"Responders, Anemia",[4]; [11],Anemia: 9/14 = 64.3%
same,effect on hemoglobin levels,"[4]; first 60 patients, FIG. 1 and 2",clear and sustained improvement in hemoglobin levels
same,Anemia Response/Evaluable,[4]; [12],10/18 (55.6%)
same,Anemia Response/Evaluable,[4]; [13],30/66 (45.5%)
same,Anemia Response/Evaluable,[4]; [14],6/14 (42.9%)
same,subjects achieving Clinical Improvement (CI) in anemia per IWG-MRT criteria,[4]; nine of 22 evaluable subjects (baseline Hgb<10 g/dL or red cell transfusion-dependent),41%
same,additional subjects with >50% reduction in transfusion requirement,[4]; of 22 evaluable subjects,five
same,total anemia response rate,"[4]; oral once daily, 28-day cycles, 22 subjects evaluable for anemia response",63%
same,subjects achieving anemia CI per IWG-MRT among those previously treated with INCB018424,[4]; previously treated with INCB018424,two of four
Cc1cnc(Nc2ccc(OCCN3CCCC3)cc2)nc1Nc1cccc(S(=O)(=O)NC(C)(C)C)c1 [TG101348],maximum tolerated dose (MTD),[5],680 mg/day
